From patent US20110245284A1, “Alkoxy- and Alkylthio-Substituted Anilinopyrimidines” (Bayer CropScience AG, priority 2008, published 2011) come the findings set out here.

Data set [1] concerns Leptosphaeria nodorum. Nature of the data set: Leptosphaeria nodorum test (wheat) / protective. The format is in vivo. Conditions: Parastagonospora nodorum, active compound concentration 500 ppm, evaluation 7-9 days after inoculation, read-out: efficacy. How it is done:
Thereafter, the plants are placed in a greenhouse at 90% relative atmospheric humidity and a temperature of 22° C.

Data set [2] has as its system Pyrenophora teres. Nature of the data set: Pyrenophora teres test (barley) / protective. It counts as in vivo. Conditions: 192 h, active compound concentration 500 ppm, evaluation 8 days after inoculation, read-out: efficacy. The procedure: After the spray coating has dried on, the plants are sprayed with a spore suspension of Pyrenophora teres. The plants remain in an incubation cabinet for 48 hours at 20° C. and 100% relative atmospheric humidity.

Data set [3] deals with Pyricularia oryzae. Nature of the data set: whole plant or invertebrate. It counts as in vivo. To be noted: 120 h, read-out: efficacy.
Data set [4] has as its system Rhizoctonia solani. As to the kind of experiment: Rhizoctonia test (rice) / protective. The format is in vivo. To be noted: 96 h, active compound concentration 250 ppm, evaluation 4 days after inoculation, read-out: efficacy.
A short description of data set [5]: logP by LC-MS on reversed-phase columns (C 18), method [b], acidic range pH 2.7. It counts as physicochemical. To be noted: pH 2.7, log p. The procedure:
(§1) The logP values were determined in accordance with EEC Directive 79/831 Annex V.A8 by HPLC (High Performance Liquid Chromatography) on reversed-phase columns (C 18), using the methods below:
[b] The LC-MS determination in the acidic range is carried out at pH 2.7 using the mobile phases 0.1% aqueous formic acid and acetonitrile (contains 0.1% formic acid), linear gradient from 10% acetonitrile to 95% acetonitrile.

Data set [6] concerns Cochliobolus miyabeanus. As to the kind of experiment: Cochliobolus test (rice) / protective. Conditions: Bipolaris oryzae, in Oryza sativa, 96 h, read-out: efficacy.
Method: Cochliobolus Test (Rice)/Protective • Solvent: 28.5 parts by weight of acetone • Emulsifier: 1.5 parts by weight of alkylaryl polyglycol ether
1 day after the treatment, the plants are inoculated with an aqueous spore suspension of Cochliobolus miyabeanus. The plants are then placed in a greenhouse at 100% relative atmospheric humidity and 25° C.
Evaluation is carried out 4 days after the inoculation.
In data set [7] the test system is Venturia inaequalis. As to the kind of experiment: Venturia test (apple) / protective. It counts as in vivo. Conditions: 240 h, active compound concentration 100 ppm, evaluation 10 days after inoculation, read-out: efficacy. The procedure: After the spray coating has dried on, the plants are inoculated with an aqueous conidia suspension of the apple scab pathogen Venturia inaequalis and then remain for 1 day in an incubation cabinet at about 20° C. and 100% relative atmospheric humidity.

Data set [8] has as its system Alternaria solani. As to the kind of experiment: Alternaria test (tomato) / protective. The format is in vivo. To be noted: 72 h, active compound concentration 100 ppm, evaluation 3 days after inoculation, read-out: efficacy. The procedure:
The plants are then placed in an incubation cabinet at about 20° C. and 100% relative atmospheric humidity.

Data set [9] has as its system Sphaerotheca fuliginea. Nature of the data set: Sphaerotheca test (cucumber) / protective. The format is in vivo. To be noted: Podosphaera fuliginea, 168 h, active compound concentration 500 ppm, evaluation 7 days after inoculation, read-out: efficacy. The procedure: The plants are subsequently placed in a greenhouse at 70% relative atmospheric humidity and a temperature of 23° C.

A short description of data set [10]: logP by LC-MS on reversed-phase columns (C 18), method [c], neutral range pH 7.8. It counts as physicochemical. To be noted: pH 7.8. The procedure:
as §1
[c] The LC-MS determination in the neutral range is carried out at pH 7.8 using the mobile phases 0.001 molar aqueous ammonium bicarbonate solution and acetonitrile, linear gradient from 10% acetonitrile to 95% acetonitrile.

Take `CCCSc1cccc(Nc2ncc(Cl)c(NC3CCC3)n2)c1` [Example 5]: the pest or weed control at 500 ppm in data set [1] and in data set [2] was ≥ 70% throughout. For the same compound, the pest or weed control at 250 ppm in [3], in data set [4] and in [6] was ≥ 80% in each case. For the same compound, in data set [5], the chromatographic logP came to 3.66.

As to `COCc1cccc(Nc2ncc(Cl)c(NC3CCCC3)n2)c1` [Example 7], in [1], the pest or weed control at 500 ppm is ≥ 70%. Moreover, the pest or weed control at 250 ppm in [4] and in data set [6] was ≥ 80% in each case. Further, in data set [5], the chromatographic logP is 2.23.

In the case of `COC(C)c1cccc(Nc2ncc(C(F)(F)F)c(NC3CCC3)n2)c1` (stereo not drawn) [Example 19], the pest or weed control at 500 ppm in data set [1] and in [2] was ≥ 70% each time. Besides, the pest or weed control at 250 ppm in data set [3], in data set [4] and in data set [6] was ≥ 80% in each case. The same compound returned a chromatographic logP in data set [5] of 3.69.

On to `COCc1cccc(Nc2ncc(Cl)c(NC(C)C)n2)c1` [Example 26], for which the pest or weed control at 100 ppm in data set [7] and in [8] was ≥ 70% each time. The pest or weed control at 500 ppm in data set [1] is ≥ 70%. In addition, the pest or weed control at 250 ppm in data set [3], in data set [4] and in data set [6] was ≥ 80% each time. Further, the chromatographic logP in [5] is 1.76.

As to `COCc1cccc(Nc2ncc(Br)c(NC(C)C)n2)c1` [Example 70], in data set [1], the pest or weed control at 500 ppm was ≥ 70%. The pest or weed control at 250 ppm in data set [3], in data set [4] and in data set [6] was ≥ 80% in each case. This compound also returned a chromatographic logP in [5] of 1.92.

Turning to `COCCOc1cccc(Nc2ncc(C(F)(F)F)c(NC3CCC3)n2)c1` [Example 71], in [1], the pest or weed control at 500 ppm is ≥ 70%. The pest or weed control at 250 ppm in [3], in data set [4] and in data set [6] was ≥ 80% in each case. In data set [5], this compound gave a chromatographic logP of 3.33.

`CCOCCOc1ccc(Nc2ncc(C(F)(F)F)c(NC3CC3)n2)cc1` [Example 91]: the pest or weed control at 500 ppm in data set [9], in data set [1] and in data set [2] was ≥ 70% in each case. For the same compound, the pest or weed control at 250 ppm in [3], in [4] and in data set [6] was ≥ 80% throughout. Besides, the chromatographic logP was 3.26 in data set [5] and 3.64 in data set [10].

Consider `COC(C)c1cc(Nc2ncc(Cl)c(NC3CC3)n2)ccc1C` (stereo not drawn) [Example 92], for which the pest or weed control at 100 ppm in [7] and in [8] was ≥ 70% throughout. Also, the pest or weed control at 500 ppm in data set [9] and in data set [1] was ≥ 70% throughout. The pest or weed control at 250 ppm in data set [3] and in [6] was ≥ 80% throughout. The results for the chromatographic logP in [5] and in data set [10] were 2.11 and 3.7, respectively.

On to `CCOCCOc1cccc(Nc2ncc(Cl)c(NC3CC3)n2)c1` [Example 93], for which the pest or weed control at 100 ppm in data set [7] and in [8] was ≥ 70% in each case. The pest or weed control at 500 ppm in [9], in data set [1] and in [2] was ≥ 70% throughout. The pest or weed control at 250 ppm in [3] and in [6] was ≥ 80% each time. In addition, the figures for the chromatographic logP in [5] and in data set [10] were 2.13 and 3.3, respectively.

For the compound `CCC[S+]([O-])c1cccc(Nc2ncc(Cl)c(NC3CCC3)n2)c1` (stereo not drawn) [Example 100], the pest or weed control at 100 ppm in [7] and in data set [8] was ≥ 70% in each case. In addition, the pest or weed control at 500 ppm in data set [1] is ≥ 70%. The pest or weed control at 250 ppm in data set [3], in data set [4] and in data set [6] was ≥ 80% throughout. The compound also came in with a chromatographic logP in [5] of 2.09.

Take `CCSc1cccc(Nc2ncc(C(F)(F)F)c(NC3CC3)n2)c1` [Example 101]: the pest or weed control at 500 ppm in data set [9], in data set [1] and in data set [2] was ≥ 70% in each case. Moreover, the pest or weed control at 250 ppm in [3], in data set [4] and in data set [6] was ≥ 80% throughout. In addition, the chromatographic logP in data set [5] is 3.95; in data set [10], 4.21.

Take `CCC[S+]([O-])c1cccc(Nc2ncc(Br)c(NC3CC3)n2)c1` (stereo not drawn) [Example 102]: the pest or weed control at 500 ppm in [1] and in data set [2] was ≥ 70% each time. Further, the pest or weed control at 250 ppm in [3], in data set [4] and in [6] was ≥ 80% in each case. The chromatographic logP in data set [5] was found to be 1.04; in data set [10], 2.5.

On to `CCCS(=O)(=O)c1cccc(Nc2ncc(Cl)c(NC3CCC3)n2)c1` [Example 103], for which, in data set [1], the pest or weed control at 500 ppm was ≥ 70%. Besides, the pest or weed control at 250 ppm in data set [4] and in [6] was ≥ 80% each time. Besides, the values for the chromatographic logP in data set [5] and in data set [10] were 2.6 and 3.27, respectively.

In the case of `CCCCSc1cccc(Nc2ncc(Br)c(NC3CC3)n2)c1` [Example 105], the pest or weed control at 500 ppm in data set [1] is ≥ 70%. Moreover, the pest or weed control at 250 ppm in data set [3], in data set [4] and in [6] was ≥ 80% in each case. Moreover, the chromatographic logP was found to be 4 in data set [5] and 4.99 in data set [10].

On to `CCCCSc1cccc(Nc2ncc(C(F)(F)F)c(NC3CC3)n2)c1` [Example 107], for which, in data set [1], the pest or weed control at 500 ppm was ≥ 70%. The pest or weed control at 250 ppm in [3], in [4] and in data set [6] was ≥ 80% throughout. Also, the chromatographic logP in data set [5] was 4.94.

With `CCCSc1cccc(Nc2ncc(C(F)(F)F)c(NC3CC3)n2)c1` [Example 109], the pest or weed control at 500 ppm in data set [9] and in data set [1] was ≥ 70% throughout. For the same compound, the pest or weed control at 250 ppm in data set [3], in data set [4] and in data set [6] was ≥ 80% in each case. Also, the chromatographic logP in data set [5] worked out at 4.44.

With `CCS(=O)(=O)c1cccc(Nc2ncc(C(F)(F)F)c(NC3CC3)n2)c1` [Example 116], the pest or weed control at 100 ppm in data set [7] was ≥ 70%. The pest or weed control at 500 ppm in data set [9], in [1] and in data set [2] was ≥ 70% throughout. Further, the pest or weed control at 250 ppm in data set [3], in data set [4] and in [6] was ≥ 80% each time. Moreover, the chromatographic logP came to 2.74 in data set [5] and 2.8 in data set [10].

As to `CC[S+]([O-])c1cccc(Nc2ncc(C(F)(F)F)c(NC3CC3)n2)c1` (stereo not drawn) [Example 117], the pest or weed control at 500 ppm in data set [9], in [1] and in data set [2] was ≥ 70% throughout. The pest or weed control at 250 ppm in data set [3], in [4] and in data set [6] was ≥ 80% in each case. Besides, the chromatographic logP in data set [5] was determined as 2.2; in [10] it was 2.46.

With `CCCC[S+]([O-])c1cccc(Nc2ncc(Br)c(NC3CC3)n2)c1` (stereo not drawn) [Example 126], the pest or weed control at 500 ppm in data set [1] and in data set [2] was ≥ 70% in each case. The pest or weed control at 250 ppm in data set [3], in [4] and in data set [6] was ≥ 80% in each case. The chromatographic logP in data set [5] worked out at 2.28; in data set [10] it was 2.86.

On to `COCc1cccc(Nc2ncc(C(F)(F)F)c(NCC3CC3)n2)c1` [Example 127], for which the pest or weed control at 500 ppm in [9], in data set [1] and in [2] was ≥ 70% each time. Also, the pest or weed control at 250 ppm in data set [3], in data set [4] and in data set [6] was ≥ 80% throughout.

As to `COCCCSc1cccc(Nc2ncc(Cl)c(NC3CC3)n2)c1` [Example 201], the pest or weed control at 500 ppm in [1] is ≥ 70%. In addition, the pest or weed control at 250 ppm in data set [3], in data set [4] and in [6] was ≥ 80% in each case. Moreover, the results for the chromatographic logP in data set [5] and in data set [10] were 2.59 and 3.77, respectively.

What is called chromatographic logP is a lipophilicity value derived from retention on a column. Read a high chromatographic logP as a more lipophilic compound.
